# Results published in US8084465B2, “Derivatives of pryidone and use thereof” (Shanghai Genomics, Inc., priority 2003, dated 2011).
# Legend:
# [1] = tested on: rat with liver fibrosis induced by CCl4; test: Serum transaminase (ALT) level in the CCl4 liver fibrosis model; type: in vivo; conditions: CCl4 model + F351, week 4; CCl4 model group 52±17.15, control group 27±5.09; P<0.05
# Experimental: (§1) (a) Generating a carbon tetrachloride model (injected intraperitoneally with 40% CCl4 mixed with oil, 0.4 ml/100 g, twice per week, for 4 continuous weeks) and a dimethyl nitrosamine liver fibrosis model (injected intraperitoneally with 1% DMN, 10 mg/Kg, twice per week, for 8 continuous weeks).
# (§2) (b) The animals of these two models were intragastrically administered with F351 from the 0 day of the model establishment, with the dose at 250 mg/Kg, once per day, for 4 or 8 continuous weeks.
# (§3) The rat liver fibrosis models established by induction with CCl4 and DMN were treated with F351 in the same manner in Example 3. The serum of the rats was extracted and the level of the serum transaminase was measured.
# [2] = tested on: liver fibrosis model induced by CCl4; test: Mortality of rats in the CCl4 liver fibrosis model; type: in vivo; conditions: 250 mg/Kg once per day
# Experimental: as §1, §2
# (§4) The rat liver fibrosis models established by induction with CCl4 and DMN were treated with F351 in the same manner in Example 3. The body weight and mortality of the rates were observed.
# [3] = tested on: liver fibrosis model induced by DMN; test: Mortality of rats in the DMN liver fibrosis model; type: in vivo, rat
# Experimental: as §1, §2, §4
# [4] = tested on: rat with liver fibrosis induced by DMN; test: Serum transaminase (ALT) level in the DMN liver fibrosis model; type: in vivo; conditions: DMN model + F351, week 4; DMN model group 74±18.25, control group 27±5.09; P<0.05
# Experimental: as §1, §2, §3
# [5] = tested on: rat liver fibrosis model induced by CCl4; test: Rat liver fibrosis model induced by CCl4, liver pathology; type: in vivo; conditions: 4 weeks, 250 mg/Kg intragastrically once per day, model group S4-S6, P=0.001
# Experimental: (§5) A rat liver fibrosis model was established by induction with CCl4 and DMN (dimethyl nitrosamine)) respectively, and treated with F351 for 4 weeks, 8 weeks. The livers of the animal were harvested to observe the pathologic results. The method was as follows:
# as §1, §2
# [6] = tested on: rat liver fibrosis model induced by DMN (dimethyl nitrosamine); test: Rat liver fibrosis model induced by DMN, liver pathology; type: in vivo
# Experimental: as §5, §1, §2
# [7] = tested on: fibroblast; test: MTT assay, proliferation of fibroblast cultured in vitro; type: cell-based
# Experimental: The inhibitory effect of F351 on the proliferation of fibroblast cultured in vitro was tested using the following method. F351 was dissolved in 0.5% DMSO. The fibroblast was treated with F351 of different amount (FIG. 1 and FIG. 2) for 5 days. The agent was refreshed once every 48 hrs. Pirfenidone was used in parallel experiments in order to compare the effects of these two agents.
# MTT assay: […] cell suspension was added into each well of a 96-well plate, 4 parallel wells per group. The concentration of the agent and the culture time remained unchanged. Then 10 μL 5 g/L MTT (3-(4,5-dimethylthiazol-2-yl)-2,5-diphenyltetrazolium bromide) was added to each well for another 4 hrs of culture. 100 uL DMSO was added to each well. Gently vortex to make a uniform mixture. After about 10 mins, OD values at 570 nm and 630 nm were measured by an enzyme linked immune detector (BIO RAD 550). The cell viability rate was calculated in accordance with the following formula: Viability rate=[(experimental well OD570−experimental well OD630)/(control well OD570−control well OD630)]×100% Inhibition rate (or proliferation rate)=100%−viability rate
compound,measurement,setting,value
"Cc1ccc(=O)n(-c2ccc(O)cc2)c1 [F351, 5-methyl-1-(4-hydroxylphenyl)-2-(1H)-pyridone]",ALT serum level,[1],45±17.68
same,mortality of the rats,[2],did not increase the mortality
same,rats survived,"[3]; week 4, 250 mg/Kg once per day, control group 7 of 25 rats survived",24
same,rats survived,"[3]; week 8, 250 mg/Kg once per day, control group 2 of 25 rats survived",18
same,ALT serum level,[4],54±17.25
same,pathologic changes (fibrosis dimension around the central veins and the sinus),[5],obviously reduced
same,"liver lesion (hepatocyte necrosis, hemorrhage, collagen deposition, fibrosis)","[6]; week 4, 250 mg/Kg intragastrically once per day, versus model group, P<0.001",significantly reduced
same,fibrosis around the sinus (pathologic results),"[6]; week 8, 250 mg/Kg intragastrically once per day, versus control group",obviously better than the control group
same,activity for inhibiting the fibroblast viability,"[7]; FIG. 2, versus Pirfenidone control",higher than that of the Pirfenidone control
same,inhibitory effect on the fibroblast,"[7]; MTT assay, treated for 5 days, compared with Pirfenidone in parallel, FIG. 1 and FIG. 2",more significant than that of Pirfenidone
